Experimental data taken from US5416194A, “Polypeptide having affinity for lipopolysaccharide and method for preparing the same” (Seikagaku Kogyo Co., Ltd., priority 1987, dated 1995).
Where no end group is shown, it is not given here.

Assays:
[1] = system: C factor (activation with LPS derived from E. coli 0111 B4 strain); assay: Inhibition of activation of C factor by LPS; assay type: biochemical, Horseshoe crab
Experimental: The acidic extract, concentrated and dried, was redissolved in 20mM HCl aq. soln. and then added into a Sephadex G-50 column (3.0×90.0 cm) (previously equilibrated with 20mM HCl aq. soln.) to effect gel filtration. The eluted fractions inhibiting activation of C factor with LPS (one derived from E. coli 0111 B4 strain was used) (Horseshoe crab blood coagulating serine protease precursor; LPS-sensitive factor named by the present inventors, Nakamura et al., Eur. J. Biochem., 154, 511 (1986 ) ) were collected, and the pH of the pooled fractions was adjusted to 6.0 with NaOH aq. soln.
The test results for the inhibition effect of the polypeptide (SEQ ID NO: 1) of the present invention against activation of C factor by LPS are shown in FIG. 2 and FIG. 3. FIG. 2 and FIG. 3 show the results in the absence or presence (1M) of sodium chloride, respectively. […] This property of binding electrically with LPS has been discovered by the present inventors. In FIG. 2 and FIG. 3, the marks (o) and show the results of the polypeptide of the present invention and polylysine, respectively.

[2] = Gel precipitin reaction / double diffusion test in 1% agarose gel; assay type: binding
Experimental: In a solution of 1% agarose (0.1% NaN3 was added) dissolved in Tris-HCl-physiologic saline of pH 7.2, Beronall buffer of pH 8.6 and acetate buffer of pH 4.6, a sedimentation line was formed between LPS and the polypeptide (SEQ ID NO: 1) of the present invention or anti-LPS factor {basic protein having MW of 11,600, consisting of amino acid 102 residue obtained from extract (lysate) of Tachypleus tridentatus hemocyte; hereinafter referred to "ALF"}. The line was dyed in amide black. The diluent used for the polypeptide of the present invention was 50 mM Tris HCl--0.15M NaCl (pH 7.2).

Staphylococcus aureus = assay: Antibacterial activity; assay type: cell-based; conditions: Gram positive bacteria
Experimental: (§1) Twenty μl of a 2-fold series diluted solution containing 0.5% polypeptide (SEQ ID NO: 1) of the present invention and 20 μl of bacterium solution (10^6 to 10^7/ ml) were cultured onto 160 μl of a culture medium of Penassay or a synthetic medium of Jarvis. After 18 hours at 37° C., its turbidity was measured by use of a micro plate reader at 550 nm and also partial live bacteria number and inhibition circle were measured.

[3] = system: Salmonella typhimurium LT 2(S); assay: Antibacterial activity; assay type: cell-based
Experimental: as §1

[4] = system: Salmonella minnesota R 595(Re); assay: Antibacterial activity; assay type: cell-based
Experimental: as §1

[5] = system: Salmonella minnesota 1114 W(S); assay: Antibacterial activity; assay type: cell-based
Experimental: as §1

[6] = system: Salmonella typhimurium 1102(Re); assay: Antibacterial activity; assay type: cell-based
Experimental: as §1

[7] = system: Spleen cells (SC) of C57BL male mouse; assay: Inhibition of blastogenesis of mouse lymphocyte by LPS (3H-TdR uptake, microscopy); assay type: cell-based; conditions: for magnification and colonization (blastogenesis) under the microscope: then 50 μg/ml LPS, three days; for inhibition of blastogenesis of lymphocyte: in the presence of LPS, 72 hours, 3H-TdR, FIG. 5
Experimental: Spleen cells (SC) of C57BL male mouse (5 weeks age) was collected by use of Ficoll-Hypaque gravity centrifugation and suspended in RPMI-1640 culture medium (no serum or added with BSA, FCS). The resulting culture medium was adjusted to 3×10^6 cell/ml and 100 μl was distributed into each of the 96-holes of a microtiter plate. 10 μl each of 0.4, 4, 40 and 400 μg/ml polypeptide of the present invention (LBP), finally then 80 μl of the culture medium, and finally 10 μl of 400 μg/ml LPS were added to the distibuted culture medium, followed by incubation in 5% CO2 incubator for 72 hours. ^3 H-thymidine (^3 H-TdR) was added thereto in an amount of 1 μci/10 μl 18 hours before completion of the incubation. The amount of ^3 H-TdR collected after peeling off of cells by use of cell harvester was measured by use of a liquid scintillation counter to discover the index of cell multiplication.
Cell multiplication was observed by using a microscope to take an insert image microphotograph.

[8] = system: non-sensitized erythrocyte; assay type: cell-based, human
bacteria = assay: Antibacterial activity in general, inhibition circle on agar containing bacteria; assay type: cell-based
Experimental: as §1

[9] = system: LPS sensitized erythrocyte (human O-type); assay: Hemolysis activity on LPS sensitized erythrocyte; assay type: cell-based
Experimental: To 1 ml of suspension containing mainly 2.5% human O-type erythrocyte, 0.5 ml of LPS (1 mg/ml ) was added and the mixture was shaken at […] for 1 hour to mix, followed by washing with saline solution.
A mixture of 50 μl of 0.5% LPS sensitized erythrocyte, 50 μl of 2-fold series diluted solution of 0.5% polypeptide of the present invention and 100 μl of Tris-HCl-buffered saline saline buffer (pH 7.2) was maintained at 37° C. for 1 hour and thereafter 2.3 ml of physiologic saline was added thereto, followed by centrifugation with 2,500 rpm for 10 minutes. The amount of hemoglobin in the supernatant was determined by use of […] absorption. Also, the hemolysis pattern on a micro plate was determined by use of a micro plate reader (Corona MPT-100: trade name) after maintaining a mixture of 50 μl of 0.5% LPS sensitized erythrocyte and 50 μl of 2-fold series diluted solution of 0.5% polypeptide at 37° C. for 1 hour.

[10] = system: Peripheral blood mononuclear cells of healthy human; assay: Inhibition of blastogenesis of human peripheral lymphocyte by LPS (3H-TdR uptake); assay type: cell-based; conditions: 10 μg/ml LBP, 50 μg/ml LPS, 72 hours, FIG. 10
Experimental: Peripheral blood mononuclear cells (PBNC)of healthy human ([…]) were collected by use of Ficoll-Hypaque gravity centrifugation and suspended in RPMI-1640 culture medium (no serum or added with BSA, FCS). The resulting culture medium was adjusted to 2×10^6 cell/ml and 100 μl was distributed into each of the 96-holes of a microtiter plate. 10 μl of 200 μg/ml LBP, then 80 μl of the culture medium, and finally 10 μl of 400 μg/ml LPS were added to the distributed culture medium, followed by incubation in 5% CO2 incubator for, 72 hours. ^3 H-thymidine (^3 H-TdR) was added thereto in an amount of 1 μci/10 μl 18 hours before completion of the incubation. The amount of ^3 H-TdR collected after peeling of cells by use of cell harvester was measured by use of a liquid scintillation counter to discover the index of cell multiplication.

## polypeptide (SEQ ID NO: 1): 17 amino acid polypeptide isolated from Tachypleus tridentatus hemocyte and also made by solid phase synthesis; C-end arginine amidated (KWCFRVCYRGICYRRCR-NH2; cysteine pairing not given here)
[1]; 0.1 μg/ml of LPS (E. coli 0111 B4)
  concentration inhibiting activation of C factor with LPS 50%: 0.12 µg/mL
[1]; 0.1 μg/ml of LPS (E. coli 0111 B4), read-out: concentration inhibiting activation of C factor with LPS 50%
  IC50: 0.05 µM
[1]; absence or presence (1M) of sodium chloride, FIG. 2 and FIG. 3, polylysine as control
  influence of salt concentration on inhibition of C factor activation by LPS: strong affinity for LPS which is not influenced by the salt concentration
[1]; amount of LBP relative to amount of LPS
  binding activity between LBP and LPS, C factor activity inhibition as index: about 20 times amount of LPS amount
[1]; at 1 μM (2.3 μg/ml) polypeptide, 0.1 μg/ml of LPS (E. coli 0111 B4)
  inhibition of activation of C factor with LPS: completely
[2]; 1% agarose gel
  sedimentation line with LPS in the double diffusion test: form a sedimentation line
[2]; any LPS of Salmonella minnesota 1114 W, R595, E. coli 0111:B4, 0113 and J5
  sedimentation lines in the gel precipitation reaction: sharp sedimentation lines
Staphylococcus aureus
  antibacterial activity: exhibited antibacterial activity
[3]
  antibacterial activity: exhibited antibacterial activity
[3]; 18 hours at 37° C.
  minimum antibacterial dose: 3.13 µg/mL
[4]
  antibacterial activity: exhibited antibacterial activity
[5]
  antibacterial activity: exhibited antibacterial activity
[6]
  antibacterial activity: exhibited antibacterial activity
[6]; 18 hours at 37° C.
  minimum antibacterial dose: 1.56 µg/mL
[7]; 0.2 μg/ml LBP, FIG. 7
  magnification and colonization (blastogenesis) under the microscope: few change were revealed
[7]; 2 μg/ml LBP, FIG. 8
  magnification and colonization (blastogenesis) under the microscope: magnification and colonization were hardly revealed
[7]; 2 μg/ml LBP
  inhibition of blastogenesis of lymphocyte: ≥ 90%
[7]; 20 μg/ml LBP, FIG. 9
  magnification and colonization (blastogenesis) under the microscope: magnification and colonization were hardly revealed
[7]; 20 μg/ml LBP
  inhibition of blastogenesis of lymphocyte: ≥ 90%
[8]
  amount at which hemolysis of non-sensitized erythrocyte was observed: ≥ 3.13 μ/ml
bacteria; ALF = anti-LPS factor from Tachypleus tridentatus hemocyte lysate
  antibacterial activity compared with ALF: generally stronger than that of ALF
bacteria; on an agar containing bacteria
  inhibition circle: formed depending on the concentration
[9]; ALF = anti-LPS factor, basic protein of MW 11,600 from Tachypleus tridentatus hemocyte lysate
  hemolysis activity compared with ALF: weaker than that of ALF
[9]; free LPS added
  effect of free LPS on hemolysis: hemolysis was inhibited by a free LPS
[9]; high concentration, room temperature
  hemolysis at room temperature: exhibited hemolysis with ease
[10]
  inhibition of blastogenesis of lymphocyte: approximately 100%
